Measured values as given in patent publication US20060020042A1, “Memantine for the treatment of mild and mild to moderate Alzheimer's disease” (Forest Laboratories, Inc., priority 2004, published 2006).

Test system: brain glucose metabolism in mild-to-moderate AD subjects
Experiment: FDG PET regional brain glucose metabolism
Format: in vivo, human
Conditions: 24 weeks of 20 mg/day
Procedure: Drug treatment. As stated above, patients were randomized to receive 20 mg/day (10 b.i.d.) memantine or placebo for 24 weeks. PET scans were performed for 10 (5 receiving memantine and 5 receiving placebo) patients at baseline and at the end of week 24.
PET Scan Acquisition. Subjects were PET scanned at the University of California, Irvine Brain Imaging Center using a GE 2048-15B dedicated head scanner. Thirty slices at 6.5-mm intervals (15 in each of two sets) were obtained so as to cover the entire brain. Attenuation correction was performed by obtaining a transmission scan using a ^68Ge pin source. A thermosetting plastic facemask was used to hold the subject stationary during the 60 minutes of total image acquisition. Scans were reconstructed with a blank and a transmission scan. PET image count was used for study analyses and adjusted for intrasubject global differences using normalization (proportional scaling).
PET Image Methodology and Analysis. Differences in regional FDG uptake were analyzed using SPM99 software (Wellcome Department of Cognitive Neurology, London, UK), implemented on the Matlab platform (MathWorks Inc., Sherborn, Mass.). Statistical parametric maps (SPMs) are spatially extended statistical processes that are constructed to test hypotheses about regionally specific effects in neuroimaging data. […]

## CC12CC3CC(C)(C1)CC(N)(C3)C2 [Memantine, 1-amino-3,5-dimethyladamantane]
5 patients, CNS incl. cerebral cortex, cerebellum, brainstem, p<0.025
  regional brain glucose metabolic activity (FDG PET) compared to baseline: metabolic increases
Isolated region of left visual cortex and left putamen
  regional brain glucose metabolism (FDG PET) compared to baseline: decreases in glucose metabolism
